# Values of other authors in publication PMC10532012, “A Putative Role of Vasopressin/Oxytocin-Type Neuropeptide in Osmoregulation and Feeding Inhibition of Apostichopus japonicus” (International Journal of Molecular Sciences, 2023).
# “Also recorded” adds a separate entry of the source. Where no end group is shown, it is not given here.
# Experiments:
# mammals = test system: mammals
# Text: The conservative functions of VP/OT-type neuropeptide in vertebrates have been extensively studied, mainly including water homeostasis, reproduction and social behavior [43, 44, 45]. However, few functional studies of VP/OT-type neuropeptide in deuterostomian invertebrates especially in echinoderms have been reported. Related physiological studies of echinoderm VP/OT-type neu ...
# longitudinal muscle = conditions: 10^−7–10^−5 M; positive control
# Protocol: To investigate the function of holotocin, longitudinal muscle, intestine and tentacle from A. japonicus were prepared. […] Firstly, the longitudinal muscle and intestine of A. japonicus were dissected and cut into strips approximately 20 mm in length. Then, these preparations were put into a 50 mL glass organ bath containing 2 ...
# C. elegans = test system: C. elegans
# Protocol: (§1) Based on the genes/transcripts encoding VP/OT-type neuropeptide signaling identified from protostomian and deuterostomian animals, the physiological effects of VP/OT superfamily signaling were analyzed and compared. In protostomes, multiple physiological functions of VP/OT-type neuropeptides in different Phylum have been characterized.
# Lasius neglectus = conditions: inotocin signaling
# Protocol: as §1
# rectum = test system: rectum; parameters: method as in PMID 12972329
substance,measurement,setting,value
"CYFQNCPRG-NH2 (disulfide) [VP, neurohypophyseal hormone …-NH2]",antidiuretic activity,mammals,had antidiuretic activity
same,blood pressure,mammals,increased blood pressure
"CYIQNCPLG-NH2 (disulfide) [OT, neurohypophyseal hormone …-NH2]",lactation,mammals,stimulated lactation
same,uterine contraction,mammals,caused the uterine contraction
NGIWYamide [neuropeptide used as positive control for contraction of longitudinal muscles],"contraction of longitudinal muscle, NGIWYamide",longitudinal muscle,reported to cause contraction of longitudinal muscle preparations; also recorded: confirmed to cause contraction of longitudinal muscles
"Nematocin: VP/OT-type neuropeptide in nematode C. elegans (CFLNSCPYRRY; ends and bridges not checked; cysteine pairing not given here; UniProt Q4R128 20-30, looked up)",associative learning,C. elegans,neuro-modulatory role in associative learning
inotocin,energy regulation,Lasius neglectus,of vital importance in energy regulation
octopressin,contraction of rectum,rectum,tonic contraction
